The text below walks through data of patent US11124537B2, “Inhibitors of glucocorticoid receptor” (ORIC Pharmaceuticals, Inc., priority 2015, dated 2021).

pIC50: −log10 of the molar value.

GR, sequence (P04150 whole entry): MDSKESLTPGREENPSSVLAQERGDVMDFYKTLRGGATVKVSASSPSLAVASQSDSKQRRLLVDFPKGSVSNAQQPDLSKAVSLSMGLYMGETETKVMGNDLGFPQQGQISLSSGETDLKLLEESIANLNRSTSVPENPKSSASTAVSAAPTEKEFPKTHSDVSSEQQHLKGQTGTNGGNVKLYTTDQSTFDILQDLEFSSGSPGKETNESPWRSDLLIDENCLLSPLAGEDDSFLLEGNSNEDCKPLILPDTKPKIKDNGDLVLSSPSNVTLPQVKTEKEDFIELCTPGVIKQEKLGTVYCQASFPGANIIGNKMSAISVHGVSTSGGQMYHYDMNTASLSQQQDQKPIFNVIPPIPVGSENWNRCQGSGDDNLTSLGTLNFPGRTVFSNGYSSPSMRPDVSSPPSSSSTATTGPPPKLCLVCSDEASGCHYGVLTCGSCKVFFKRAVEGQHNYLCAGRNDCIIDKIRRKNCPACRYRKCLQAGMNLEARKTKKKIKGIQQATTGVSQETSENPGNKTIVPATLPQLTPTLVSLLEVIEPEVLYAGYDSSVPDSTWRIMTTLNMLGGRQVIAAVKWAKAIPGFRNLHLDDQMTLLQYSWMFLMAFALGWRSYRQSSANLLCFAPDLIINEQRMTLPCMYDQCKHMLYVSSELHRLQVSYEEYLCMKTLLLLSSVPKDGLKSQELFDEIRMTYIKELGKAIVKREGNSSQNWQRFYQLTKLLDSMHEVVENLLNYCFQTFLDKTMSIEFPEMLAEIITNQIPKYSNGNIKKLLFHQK

The assay addresses GR (Homo sapiens (Human), UniProt P04150). Description: In Vitro GR Luciferase Reporter Assay. Format: cell-based. Particulars: CHO-K1-GR-MMTV-Luc reporter cells, antagonist assay, 10 nM Dexamethasone, 18-24 hours. The source says:
Example 4: In Vitro GR Luciferase Reporter Assay
Cell Line: CHO-K1-GR-MMTV-Luc reporter cells
Culture Media: DMEM (with phenol red)+10% FBS
Assay Media: DMEM (without phenol red)+10% CSS
Culture CHO-K1-GR-MMTV-Luc reporter cells in 15 cm plates in Culture Media at conditions less than 90% confluence.
Prepare 200×DMSO 1:5 serial dilutions of control and test compounds in 96-well non-sterile V bottom plate in DMSO, 8 serial dilutions for each compound.
Prepare 5× Assay Media diluted compound serial dilutions in 96-well non-sterile V bottom plate: Add 97.5 uL/well of Assay Media into 96-well then add 2.5 ul of 200× concentration of compounds and mix well.
Seed cells for Antagonist Assay: […] CHO-K1-GR-MMTV-Luc reporter cells were seeded in a Corning 3707 flat clear bottom 384-well white TC plate in 20 ul of Assay Media containing 12.5 nM Dexamethasone (final concentration=10 nM).
Add compounds: 5 ul of assay media diluted compounds were added to appropriate wells and followed a quick spin (1000 rpm, 10 sec) to bring media and cells to the bottom of plate. The plates were covered with SealMate film to avoid evaporation and placed in 37° C. incubator for approximately 18-24 hours.
Read plates: Equilibrate appropriate amount of Promega OneGlo luciferase reagent to room temperature. Remove the plates from incubator and add 25 uL of OneGlo reagent/well by multiple channel pipette and read the plates with Tecan F500 luminometer within 3 minutes.
The ability of the compounds disclosed herein to inhibit GR activity was quantified and the respective IC50 value was determined. Table 3 provides the cellular IC50 values of various substituted steroidal compounds disclosed herein.
A general note: Reporter assays use an easily measured gene product as a stand-in for the process of interest.
`Cc1c(F)cc([C@H]2C[C@@]3(C)[C@@H](CC[C@@]3(O)C#Cc3ccc(N(C)C)cc3)[C@@H]3CCC4=CC(=O)CCC4=C32)cc1F` had a pIC50 of under 7.00. `Cc1ccc([C@H]2C[C@@]3(C)[C@@H](CC[C@@]3(O)C#CC(C)(C)C)[C@@H]3CCC4=CC(=O)CCC4=C32)cc1C` had a pIC50 of at least 7.00. Molecule `Cc1c(F)cc([C@H]2C[C@@]3(C)[C@@H](CC[C@@]3(O)C#Cc3ccccn3)[C@@H]3CCC4=CC(=O)CCC4=C32)cc1F` showed a pIC50 of under 7.00. With `CN(C)c1ccc([C@H]2C[C@@]3(C)[C@@H](CC[C@@]3(O)C#Cc3ccc(C#N)cc3)[C@@H]3CCC4=CC(=O)CCC4=C32)cc1`, the pIC50 is at least 7.00. As for `COC(C)(C)C#C[C@]1(O)CC[C@H]2[C@@H]3CCC4=CC(=O)CCC4=C3[C@@H](c3ccc(N4CCCC4)cc3)C[C@@]21C` [drawing 340], the negative-log IC50 (pIC50) was at least 7.00. `CC(C)(C)C#C[C@]1(O)CC[C@H]2[C@@H]3CCC4=CC(=O)CCC4=C3[C@@H](c3ccc(C(C)(CO)CO)cc3)C[C@@]21C` had a negative-log IC50 (pIC50) of at least 7.00. Then `CC(C)C#C[C@]1(O)CC[C@H]2[C@@H]3CCC4=CC(=O)CCC4=C3[C@@H](c3ccc4c(c3)OCO4)C[C@@]21C`, with at least 7.00. For `CC(C)(C)C#C[C@]1(O)CC[C@H]2[C@@H]3CCC4=CC(=O)CCC4=C3[C@@H](c3ccc(C(C)(C)CO)cc3)C[C@@]21C`, the pIC50 was at least 7.00. Molecule `CN(C)c1ccc([C@H]2C[C@@]3(C)[C@@H](CC[C@@]3(O)C#Cc3ccc(S(C)(=O)=O)cc3)[C@@H]3CCC4=CC(=O)CCC4=C32)cc1` [drawing 352] gave a pIC50 of at least 7.00. Take `CC(C)(C)C#C[C@]1(O)CC[C@H]2[C@@H]3CCC4=CC(=O)CCC4=C3[C@@H](c3ccc(NCC4CC4)cc3)C[C@@]21C`: the pIC50 was at least 7.00. In the case of `CC(C)(C)C#C[C@]1(O)CC[C@H]2[C@@H]3CCC4=CC(=O)CCC4=C3[C@@H](c3ccc(N4CCN(C(=O)CO)CC4)cc3)C[C@@]21C`, the pIC50 is at least 7.00. With `CC(C)N(C)c1ccc([C@H]2C[C@@]3(C)[C@@H](CC[C@@]3(O)C#Cc3ccc(S(C)(=O)=O)cc3)[C@@H]3CCC4=CC(=O)CCC4=C32)cc1` the figure was at least 7.00; with `CN(C)c1cc(F)c([C@H]2C[C@@]3(C)[C@@H](CC[C@@]3(O)C#CC(F)(F)F)[C@@H]3CCC4=CC(=O)CCC4=C32)c(F)c1`, at least 7.00; with `CN(C)c1cc(F)c([C@H]2C[C@@]3(C)[C@@H](CC[C@@]3(O)C#CC3CC3)[C@@H]3CCC4=CC(=O)CCC4=C32)cc1F`, at least 7.00. Then `Cc1c(F)cc([C@H]2C[C@@]3(C)[C@@H](CC[C@@]3(O)C#CC(C)(C)C)[C@@H]3CCC4=CC(=O)CCC4=C32)cc1F`, with under 7.00; and `Cc1ccc(-c2cc(F)c([C@H]3C[C@@]4(C)[C@@H](CC[C@@]4(O)C#CC(C)(C)C)[C@@H]4CCC5=CC(=O)CCC5=C43)cc2F)cn1`, with under 7.00; and `CN(C)c1c(F)cc([C@H]2C[C@@]3(C)[C@@H](CC[C@@]3(O)C#CC(C)(C)C)[C@@H]3CCC4=CC(=O)CCC4=C32)cc1F`, with at least 7.00.

With `CN(C)c1ccc([C@H]2C[C@@]3(C)[C@@H](CC[C@@]3(O)C#CC(C)(C)C)[C@@H]3CCC4=CC(=O)CCC4=C32)cc1`, the pIC50 is at least 7.00.

Molecule `CCc1ccc([C@H]2C[C@@]3(C)[C@@H](CC[C@@]3(O)C#CC(C)(C)C)[C@@H]3CCC4=CC(=O)CCC4=C32)cc1` had a pIC50 of at least 7.00. The molecule `CCN(C)c1cc(F)c([C@H]2C[C@@]3(C)[C@@H](CC[C@@]3(O)C#CC3CC3)[C@@H]3CCC4=CC(=O)CCC4=C32)c(F)c1` had a pIC50 of at least 7.00. The molecule `COC(C)(C)C#C[C@]1(O)CC[C@H]2[C@@H]3CCC4=CC(=O)CCC4=C3[C@@H](c3ccc(C(C)(C)C)cc3)C[C@@]21C` gave a pIC50 of at least 7.00. `C[C@]12C[C@H](c3ccc4c(c3)OCO4)C3=C4CCC(=O)C=C4CC[C@H]3[C@@H]1CC[C@@]2(O)C#Cc1ccc(S(C)(=O)=O)cc1` showed a pIC50 of at least 7.00. `Cc1cc([C@H]2C[C@@]3(C)[C@@H](CC[C@@]3(O)C#CC(C)(C)C)[C@@H]3CCC4=CC(=O)CCC4=C32)ccc1N(C)C` [drawing 283]: the pIC50 was at least 7.00. Molecule `CCN(c1ccc([C@H]2C[C@@]3(C)[C@@H](CC[C@@]3(O)C#CC(C)(C)C)[C@@H]3CCC4=CC(=O)CCC4=C32)cc1)C(C)C` showed a pIC50 of under 7.00. In turn, `CN(C)c1c(F)cc([C@H]2C[C@@]3(C)[C@@H](CC[C@@]3(O)C#CC(F)(F)F)[C@@H]3CCC4=CC(=O)CCC4=C32)cc1F` gave a pIC50 of under 7.00.

On to `CC(C)(C)C#C[C@]1(O)CC[C@H]2[C@@H]3CCC4=CC(=O)CCC4=C3[C@@H](c3ccc(N4CCC[C@@H]4CO)cc3)C[C@@]21C` [drawing 364], for which the pIC50 was at least 7.00. `Cc1ccc([C@H]2C[C@@]3(C)[C@@H](CC[C@@]3(O)C#CC3CC3)[C@@H]3CCC4=CC(=O)CCC4=C32)cc1F`: the pIC50 was at least 7.00. For `Cc1ccc([C@H]2C[C@@]3(C)[C@@H](CC[C@@]3(O)C#CC(C)C)[C@@H]3CCC4=CC(=O)CCC4=C32)cc1F`, the negative-log IC50 (pIC50) is at least 7.00. Then `CN(C)c1ccc([C@H]2C[C@@]3(C)[C@@H](CC[C@@]3(O)C#Cc3ccccn3)[C@@H]3CCC4=CC(=O)CCC4=C32)cc1`, with at least 7.00; and `CCc1cc(F)c([C@H]2C[C@@]3(C)[C@@H](CC[C@@]3(O)C#CC(C)C)[C@@H]3CCC4=CC(=O)CCC4=C32)c(F)c1`, with at least 7.00; and `CN(C(=O)CO)c1ccc([C@H]2C[C@@]3(C)[C@@H](CC[C@@]3(O)C#CC(C)(C)C)[C@@H]3CCC4=CC(=O)CCC4=C32)cc1`, with under 7.00.

Take `Cc1ccc([C@H]2C[C@@]3(C)[C@@H](CC[C@@]3(O)C#CC(C)(C)C)[C@@H]3CCC4=CC(=O)CCC4=C32)cc1`: the pIC50 was at least 7.00. The molecule `COC1CN(c2ccc([C@H]3C[C@@]4(C)[C@@H](CC[C@@]4(O)C#CC(C)(C)C)[C@@H]4CCC5=CC(=O)CCC5=C43)cc2)C1` [drawing 341] showed a pIC50 of at least 7.00. For `[2H]C([2H])([2H])N(c1ccc([C@H]2C[C@@]3(C)[C@@H](CC[C@@]3(O)C#CC(C)(C)C)[C@@H]3CCC4=CC(=O)CCC4=C32)cc1)C([2H])([2H])[2H]`, the negative-log IC50 (pIC50) was at least 7.00. As for `CC(C)(C)C#C[C@]1(O)CC[C@H]2[C@@H]3CCC4=CC(=O)CCC4=C3[C@@H](c3ccc(N)cc3)C[C@@]21C`, the pIC50 is under 7.00. Then `CN(C)c1cc(F)c([C@H]2C[C@@]3(C)[C@@H](CC[C@@]3(O)C#Cc3ccccc3)[C@@H]3CCC4=CC(=O)CCC4=C32)c(F)c1`, with at least 7.00; and `Cc1c(F)cc([C@H]2C[C@@]3(C)[C@@H](CC[C@@]3(O)C#CC3CC3)[C@@H]3CCC4=CC(=O)CCC4=C32)cc1F`, with at least 7.00; and `CC(C)C#C[C@]1(O)CC[C@H]2[C@@H]3CCC4=CC(=O)CCC4=C3[C@@H](c3c(F)cc(N(C)C)cc3F)C[C@@]21C`, with at least 7.00. Regarding `CC(C)(C)C#C[C@]1(O)CC[C@H]2[C@@H]3CCC4=CC(=O)CCC4=C3[C@@H](c3ccc(C4CC4)cc3)C[C@@]21C`, the pIC50 is at least 7.00.

Consider `CC(C)Oc1ccc([C@H]2C[C@@]3(C)[C@@H](CC[C@@]3(O)C#CC(C)(C)C)[C@@H]3CCC4=CC(=O)CCC4=C32)cc1`, for which the pIC50 was at least 7.00.

In turn, `C[C@]12C[C@H](c3ccc4c(c3)OCCO4)C3=C4CCC(=O)C=C4CC[C@H]3[C@@H]1CC[C@@]2(O)C#CC(F)(F)F` had a pIC50 of at least 7.00. For `CN(C)c1ccc([C@H]2C[C@@]3(C)[C@@H](CC[C@@]3(O)C#CC3(C)COC3)[C@@H]3CCC4=CC(=O)CCC4=C32)cc1` [drawing 354], the pIC50 was at least 7.00. Then `COc1cc([C@H]2C[C@@]3(C)[C@@H](CC[C@@]3(O)C#CC(C)(C)C)[C@@H]3CCC4=CC(=O)CCC4=C32)ccc1N(C)C`, with under 7.00; and `COC1CN(c2ccc([C@H]3C[C@@]4(C)[C@@H](CC[C@@]4(O)C#CC(C)(C)OC)[C@@H]4CCC5=CC(=O)CCC5=C43)cc2)C1`, with under 7.00; and `CN(C)c1ccc([C@H]2C[C@@]3(C)[C@@H](CC[C@@]3(O)C#CC(C)(C)C)[C@@H]3CCC4=CC(=O)CCC4=C32)cc1F` [drawing 284], with at least 7.00.

For `CCN(C)c1cc(F)c([C@H]2C[C@@]3(C)[C@@H](CC[C@@]3(O)C#CC(C)C)[C@@H]3CCC4=CC(=O)CCC4=C32)c(F)c1`, the pIC50 is at least 7.00.

In turn, `CC(C)C#C[C@]1(O)CC[C@H]2[C@@H]3CCC4=CC(=O)CCC4=C3[C@@H](c3ccc(N(C)C)c(F)c3F)C[C@@]21C` gave a pIC50 of at least 7.00. Molecule `CN(C)c1cc([C@H]2C[C@@]3(C)[C@@H](CC[C@@]3(O)C#CC(F)(F)F)[C@@H]3CCC4=CC(=O)CCC4=C32)ccc1Cl` had a pIC50 of under 7.00. Consider `CC(C)(C)C#C[C@]1(O)CC[C@H]2[C@@H]3CCC4=CC(=O)CCC4=C3[C@@H](c3ccc(N4CCN(S(C)(=O)=O)CC4)cc3)C[C@@]21C` [drawing 346], for which the negative logarithm of the IC50 (pIC50) is at least 7.00.

A word on the pIC50: it is the IC50 on a negative log10 scale, so that one unit is a factor of ten. The low end stands for a high IC50, the high end for a low IC50.
